In patent US12528815B2, “5-amino-8-(4-pyridyl)-[1,2,4]triazolo[4,3-c]pyrimidin-3-one compounds for use against cancer” (Nxera Pharma UK Limited, priority 2020, dated 2026):
pIC50: −log10 of the molar value.

Legend:
[1] = target: T1, human CB1 receptor (Homo sapiens, UniProt P21554); test: CB1 receptor antagonism, agonist-induced cAMP modulation (HTRF) in transfected CHO cells; type: cell-based; settings: read-out: Antag IC50
T1 construct: expressed in transfected cells; host or cells: CHO cells
Method: Receptor antagonism: Evaluation of the antagonist activity of compounds at the human CB1 receptor expressed in transfected CHO cells, determined by measuring their effects on agonist-induced cAMP modulation using the HTRF detection method.
Thereafter, the reference agonist CP 55940 and the adenylyl cyclase activator NKH 477 are added at respective final concentrations of 3 nM and 3 μM.
For basal control measurements, CP 55940 is omitted from the wells containing 3 μM AM 281.
Following 20 min incubation at 37° C., the cells are lysed and the fluorescence acceptor (D2-labeled cAMP) and fluorescence donor (anti-cAMP antibody labeled with europium cryptate) are added.
After 60 min at room temperature, the fluorescence transfer is measured at λex=337 nm and λem=620 and 665 nm using a microplate reader (Rubystar, BMG). The cAMP concentration is determined by dividing the signal measured at 665 nm by that measured at 620 nm (ratio).
The standard reference antagonist is AM 281, which is tested in each experiment at several concentrations to generate a concentration-response curve from which its IC50 value is calculated.

[2] = target: T2, human adenosine A2A receptor (Homo sapiens, UniProt P29274); test: Inhibition binding assay, human adenosine A2A receptor membranes, [3H]ZM241385; settings: 1 nM [3H]ZM241385, HEK293-hA2A membranes, 25° C., 1 h; IC50 converted to Ki with Cheng-Prusoff; read-out: A2A pKi (converted)
T2 construct: expressed in transfected cells; host or cells: HEK293 cells infected with BacMam
Outline: (§1)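 Membranes from BacMam-infected HEK293 cells (0.2 μg A2A, 1.4 μg A1) incubated 1 h at 25° C with test compound and 1 nM [3H]ZM241385 (A2A; 50 mM Tris-HCl pH 7.4) or [3H]DPCPX (A1; plus 100 mM NaCl, 10 mM MgCl2). Nonspecific: 1 μM CGS15943 or DPCPX. Filtration, scintillation; IC50 converted to Ki via Cheng-Prusoff.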

[3] = target: T3, human adenosine A1 receptor (Homo sapiens, UniProt P30542); test: Inhibition binding assay, human adenosine A1 receptor membranes, [3H]DPCPX; settings: 1 nM [3H]DPCPX, 25° C., 1 h; IC50 converted to Ki with Cheng-Prusoff; read-out: A1 pKi (converted)
T3 construct: expressed in transfected cells; host or cells: HEK293 cells infected with BacMam (the same paragraph also labels the preparation CHO-hA1)
T3 sequence (P30542 1-326): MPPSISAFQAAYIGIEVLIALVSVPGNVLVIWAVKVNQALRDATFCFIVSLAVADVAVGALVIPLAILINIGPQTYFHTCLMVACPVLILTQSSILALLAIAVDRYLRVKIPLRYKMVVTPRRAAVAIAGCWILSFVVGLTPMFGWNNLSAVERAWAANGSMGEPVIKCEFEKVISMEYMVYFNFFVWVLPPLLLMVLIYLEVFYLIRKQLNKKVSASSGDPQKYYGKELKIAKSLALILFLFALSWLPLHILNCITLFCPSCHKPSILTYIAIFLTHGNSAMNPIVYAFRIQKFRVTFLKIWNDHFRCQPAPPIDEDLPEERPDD
Outline: as §1

T2 sequence (P29274 whole entry): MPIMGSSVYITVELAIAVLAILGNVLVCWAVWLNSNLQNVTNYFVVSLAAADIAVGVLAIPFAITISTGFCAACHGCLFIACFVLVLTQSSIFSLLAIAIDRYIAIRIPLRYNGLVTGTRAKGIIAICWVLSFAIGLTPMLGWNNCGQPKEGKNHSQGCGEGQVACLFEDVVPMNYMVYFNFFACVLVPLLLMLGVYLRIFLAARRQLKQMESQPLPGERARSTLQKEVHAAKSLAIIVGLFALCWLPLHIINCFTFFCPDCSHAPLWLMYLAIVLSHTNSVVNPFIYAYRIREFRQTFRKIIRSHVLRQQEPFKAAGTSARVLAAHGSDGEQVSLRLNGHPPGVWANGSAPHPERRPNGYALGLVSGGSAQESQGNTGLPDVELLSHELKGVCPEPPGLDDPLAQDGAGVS
T1 sequence (P21554 whole entry): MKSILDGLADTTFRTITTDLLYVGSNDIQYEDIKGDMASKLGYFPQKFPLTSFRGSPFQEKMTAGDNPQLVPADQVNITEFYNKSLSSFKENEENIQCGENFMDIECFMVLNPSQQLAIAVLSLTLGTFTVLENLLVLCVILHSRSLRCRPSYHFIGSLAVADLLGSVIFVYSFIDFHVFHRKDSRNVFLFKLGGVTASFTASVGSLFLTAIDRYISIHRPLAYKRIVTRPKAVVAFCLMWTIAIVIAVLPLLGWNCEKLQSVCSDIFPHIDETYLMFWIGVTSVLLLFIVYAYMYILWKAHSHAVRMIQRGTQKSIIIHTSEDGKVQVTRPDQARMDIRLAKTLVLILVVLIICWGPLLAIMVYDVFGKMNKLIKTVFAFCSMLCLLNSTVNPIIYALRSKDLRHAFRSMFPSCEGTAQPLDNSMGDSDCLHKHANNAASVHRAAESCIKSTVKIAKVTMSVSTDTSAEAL

Row | SMILES | pIC50 [1] | Ki [2] | Ki [3]
1 | Cc1cc(-c2c(-c3nc(C)cs3)nc(N)n3c(=O)n(CCC(F)(F)F)nc23)cc(C)n1 [Example 2-44, 5-amino-8-(2,6-dimethyl-4-pyridyl)-7-(4-methylthiazol-2-yl)-2-(3,3,3-trifluoropropyl)-[1,2,4]triazolo[4,3-c]pyrimidin-3-one] | < 4.00 | 20 nM | –
2 | CCN(C)CCn1nc2c(-c3cc(C)nc(C)c3)c(-c3ccccc3)nc(N)n2c1=O [Example 2-18, 5-amino-8-(2,6-dimethyl-4-pyridyl)-2-[2-[ethyl(methyl)amino]ethyl]-7-phenyl-[1,2,4]triazolo[4,3-c]pyrimidin-3-one] | < 4.00 | 6.31 nM | –
3 | Cc1cc(-c2c(-c3ccccn3)nc(N)n3c(=O)n(CCC(F)(F)F)nc23)cc(C)n1 [Example 2-37, 5-amino-8-(2,6-dimethyl-4-pyridyl)-7-(2-pyridyl)-2-(3,3,3-trifluoropropyl)-[1,2,4]triazolo[4,3-c]pyrimidin-3-one] | < 4.00 | 31.6 nM | > 3160 nM
4 | Cc1cc(-c2c(-c3ccc(F)cc3)nc(N)n3c(=O)n(CCC(F)(F)F)nc23)cc(CO)n1 [Example 2-64, 5-amino-7-(4-fluorophenyl)-8-[2-(hydroxymethyl)-6-methyl-4-pyridyl]-2-(3,3,3-trifluoropropyl)-[1,2,4]triazolo[4,3-c]pyrimidin-3-one] | 4.43 | 1.58 nM | > 1260 nM
5 | Cc1cc(-c2c(-c3ccccc3)nc(N)n3c(=O)n(CC(=O)N(C)C)nc23)cc(C)n1 [Example 2-25, 2-[5-amino-8-(2,6-dimethyl-4-pyridyl)-3-oxo-7-phenyl-[1,2,4]triazolo[4,3-c]pyrimidin-2-yl]-N,N-dimethyl-acetamide] | < 4.00 | 10 nM | –
6 | Cc1cc(-c2c(-c3ccccc3)nc(N)n3c(=O)n(CCC(F)(F)F)nc23)cc(C)[n+]1[O-] [Example 2-56, 5-amino-8-(2,6-dimethyl-1-oxido-pyridin-1-ium-4-yl)-7-phenyl-2-(3,3,3-trifluoropropyl)-[1,2,4]triazolo[4,3-c]pyrimidin-3-one] | < 4.00 | 12.6 nM | 316 nM
7 | COc1nc(Cn2nc3c(-c4cc(C)nc(C)c4)c(-c4ccccc4)nc(N)n3c2=O)ccc1F [Example 1-7, 5-amino-8-(2,6-dimethyl-4-pyridyl)-2-[(5-fluoro-6-methoxy-2-pyridyl)methyl]-7-phenyl-[1,2,4]triazolo[4,3-c]pyrimidin-3-one] | 5.49 | 3.98 nM | 398 nM
8 | Cc1cc(-c2c(-c3ccccc3)nc(N)n3c(=O)n(Cc4ccc(F)c(N)n4)nc23)cc(CO)n1 [Example 1-45, 5-amino-2-[(6-amino-5-fluoro-2-pyridyl)methyl]-8-[2-(hydroxymethyl)-6-methyl-4-pyridyl]-7-phenyl-[1,2,4]triazolo[4,3-c]pyrimidin-3-one] | < 4.00 | 0.794 nM | 126 nM
9 | CCN(C)c1nc(N)n2c(=O)n(CCC(F)(F)F)nc2c1-c1cc(C)nc(C)c1 [Example 3-4, 5-amino-8-(2,6-dimethyl-4-pyridyl)-7-[ethyl(methyl)amino]-2-(3,3,3-trifluoropropyl)-[1,2,4]triazolo[4,3-c]pyrimidin-3-one] | < 4.00 | 126 nM | > 3160 nM
10 | COCCn1nc2c(-c3cc(C)nc(C)c3)c(-c3ccccc3)nc(N)n2c1=O [Example 2-10, 5-amino-8-(2,6-dimethyl-4-pyridyl)-2-(2-methoxyethyl)-7-phenyl-[1,2,4]triazolo[4,3-c]pyrimidin-3-one] | < 4.00 | 10 nM | 251 nM
11 | Cc1cc(-c2c(-c3ccccc3)nc(N)n3c(=O)n(C[C@H]4CNCCO4)nc23)cc(C)n1 [Example 2-66, (R)-5-amino-8-(2,6-dimethylpyridin-4-yl)-2-(morpholin-2-ylmethyl)-7-phenyl-[1,2,4]triazolo[4,3-c]pyrimidin-3(2H)-one] | < 4.00 | 6.31 nM | 1000 nM
12 | C/C=C(\C)c1nc(N)n2c(=O)n(CCC(F)(F)F)nc2c1-c1cc(C)nc(C)c1 [Example 3-10, 5-amino-8-(2,6-dimethyl-4-pyridyl)-7-[(E)-1-methylprop-1-enyl]-2-(3,3,3-trifluoropropyl)-[1,2,4]triazolo[4,3-c]pyrimidin-3-one] | – | 10 nM | > 3160 nM
13 | CNC(=O)c1cc(NCCn2nc3c(-c4cc(C)nc(C)c4)c(-c4ccccc4)nc(N)n3c2=O)ccc1Cl [Example 1-91, 5-[2-[5-amino-8-(2,6-dimethyl-4-pyridyl)-3-oxo-7-phenyl-[1,2,4]triazolo[4,3-c]pyrimidin-2-yl]ethylamino]-2-chloro-N-methyl-benzamide] | – | 39.8 nM | 1000 nM
14 | COc1cc(-c2c(-c3ccc(F)cc3)nc(N)n3c(=O)n(Cc4ccc(Cl)cn4)nc23)cc(CO)n1 [Example 1-68, 5-amino-2-[(5-chloro-2-pyridyl)methyl]-7-(4-fluorophenyl)-8-[2-(hydroxymethyl)-6-methoxy-4-pyridyl]-[1,2,4]triazolo[4,3-c]pyrimidin-3-one] | – | 1.26 nM | > 1580 nM
15 | CC1=NN(c2cccc(NCCn3nc4c(-c5cc(C)nc(C)c5)c(-c5ccccc5)nc(N)n4c3=O)c2)C(=O)C1 [Example 1-98, 5-amino-8-(2,6-dimethyl-4-pyridyl)-2-[2-[3-(3-methyl-5-oxo-4H-pyrazol-1-yl)anilino]ethyl]-7-phenyl-[1,2,4]triazolo[4,3-c]pyrimidin-3-one] | – | 79.4 nM | 1000 nM
16 | Cc1cc(-c2c(-c3ccccc3)nc(N)n3c(=O)n(CCC(F)F)nc23)cc(C)n1 [Example 2-17, 5-amino-2-(3,3-difluoropropyl)-8-(2,6-dimethyl-4-pyridyl)-7-phenyl-[1,2,4]triazolo[4,3-c]pyrimidin-3-one] | – | 2 nM | 1000 nM
17 | Cc1cc(-c2c(-c3ccccc3)nc(N)n3c(=O)n(CC(N)=O)nc23)cc(C)n1 [Example 2-22, 2-[5-amino-8-(2,6-dimethyl-4-pyridyl)-3-oxo-7-phenyl-[1,2,4]triazolo[4,3-c]pyrimidin-2-yl]acetamide] | – | 200 nM | 1000 nM
18 | Cc1cc(-c2c(-c3ccccc3)nc(N)n3c(=O)n(Cc4ccc(F)c(N)n4)nc23)cc(C)n1 [Example 1-36, 5-amino-2-[(6-amino-5-fluoro-2-pyridyl)methyl]-8-(2,6-dimethyl-4-pyridyl)-7-phenyl-[1,2,4]triazolo[4,3-c]pyrimidin-3-one] | – | 0.251 nM | 100 nM
19 | Cc1cc(-c2c(-c3ccc(F)cc3)nc(N)n3c(=O)n(CCN4CCCCC4)nc23)cc(C)n1 [Example 2-104, 5-amino-8-(2,6-dimethyl-4-pyridyl)-7-(4-fluorophenyl)-2-[2-(1-piperidyl)ethyl]-[1,2,4]triazolo[4,3-c]pyrimidin-3-one] | – | 79.4 nM | > 3980 nM
20 | Cc1cc(-c2c(-c3ccccc3)nc(N)n3c(=O)n(CCC(=O)N(C)C)nc23)cc(C)n1 [Example 2-23, 3-[5-amino-8-(2,6-dimethyl-4-pyridyl)-3-oxo-7-phenyl-[1,2,4]triazolo[4,3-c]pyrimidin-2-yl]-N,N-dimethyl-propanamide] | – | 12.6 nM | 1000 nM
21 | COc1cc(-c2c(-c3ccccc3)nc(N)n3c(=O)n(Cc4ccc(C)cn4)nc23)cc(CO)n1 [Example 1-66, 5-amino-8-[2-(hydroxymethyl)-6-methoxy-4-pyridyl]-2-[(5-methyl-2-pyridyl)methyl]-7-phenyl-[1,2,4]triazolo[4,3-c]pyrimidin-3-one] | – | 0.631 nM | 501 nM
22 | Cc1cc(-c2c(-c3ccccc3)nc(N)n3c(=O)n(CCCN4CCCCC4)nc23)cc(C)n1 [Example 2-111, 5-amino-8-(2,6-dimethyl-4-pyridyl)-7-phenyl-2-[3-(1-piperidyl)propyl]-[1,2,4]triazolo[4,3-c]pyrimidin-3-one] | – | 398 nM | > 3980 nM
23 | Cc1cc(-c2c(-c3ccccc3)nc(N)n3c(=O)n(C(CN)c4c(F)cccc4F)nc23)cc(C)n1 (stereo not drawn) [Example 1-34, 5-amino-2-(2-amino-1-(2,6-difluorophenyl)ethyl)-8-(2,6-dimethylpyridin-4-yl)-7-phenyl-[1,2,4]triazolo[4,3-c]pyrimidin-3(2H)-one] | – | 1 nM | 100 nM
